# Measured values from publication PMC5993284, “Peptide inhibitors of the anaphase promoting-complex that cause sensitivity to microtubule poison” (PLoS ONE, 2018).
# Ends that are not written are not given here. * marks the point of attachment. Biotin = O=C1N[C@H]2[C@H](CS[C@H]2CCCCC(=O)*)N1
# System: APC/C
# Test: Biotinylated peptide pull-down of purified APC/C, Western blot
# Assay type: binding, Saccharomyces cerevisiae
# Settings: 20 μM biotinylated peptide, purified yeast APC/C, 1 h at 4 °C, streptavidin/Avidin beads, n = 3
# Method: For APC/C purification, the APC/C which contain Cdc16-TAP-tag was isolated from 2 mL arrested yeast lysate by 120 μL IgG sepharose 6 Fast Flow beads (GE Healthcare Life Sciences) and incubate for 2 h at 4 °C on a rotating wheel. Beads were collected washed with 5 mL of APC/C wash buffer (200 mM Hepes pH8.0, 150 mM NaCl, 10% glycerol). Beads were resuspended in 150 μL of APC/C wash buffer contain 17.6 units of AcTEV protease (Invitrogen, Carlsbad, CA) at 4°C for 3 h with pipetting every 20 minutes. The purified APC/C was collected in the flow-through.
# For APC/C binding assays, 20 μM biotinylated peptides or 20 μM peptides only as a negative control were incubated with purified APC/C and 100 μL APC/C wash buffer which contains phosphatase inhibitors (200 mM Hepes pH 8.0, 150 mM NaCl, 10% glycerol, 10 mM NaF, 1 mM NaVO4, 5 mM Na-pyrophosphate, 10 mM 2-glycerol phosphate) for 1 h at 4 °C. The mixtures were applied to 120 μL streptavidin beads (Dynabeads MyOne Streptavidin T1, Invitrogen) for 30 min at 4 °C with gentle pipetting every 10 min. Beads were washed with 1 mL of PBST buffer (Phosphate buffer saline and 0.1% Tween 20) three times SDS-PAGE protein sample was added directly. For APC/C binding competition experiments, the biotinylated peptide and 10-fold excess non-biotinylated peptides were added to purified APC/C at same time.
# Free D-biotin in 10% DMSO was used for the control binding assays. For pre-coating APC/C with biotin, a modified APC/C purification was performed. 2 mL yeast lysate was incubated with 120 μL IgG Sepharose beads and additional 20.4 μM free biotin or non-biotin solvent as a positive control was added and samples were incubated for 2 h at 4 °C on a rotating wheel. Purified pre-coated APC/C was then removed from the IgG Sepharose following the standard purification procedure. 20 μM biotinylated peptides or 20 μM peptides as a negative control were incubated with pre-coated APC/C and 100 μL APC/C wash buffer which contain phosphatase inhibitors for 1 h at 4 °C. In addition, 20 μM biotinylated peptide was added and incubated with pre-coated APC/C in a non-biotin containing solvent as positive control. Pre-coated APC/C binding procedures were same as above. For pre-coating streptavidin beads with biotin, streptavidin beads were washed in the presence of 10.2 nmol/mL D-biotin in PBST buffer or non-biotin solvent as a positive control before use. Pre-coated streptavidin beads were incubated with purified APC/C-peptide complexes with an extra […] biotin for 30 minutes with gentle pipetting every 10 min at 4 °C.
# Proteins were separated in SDS-PAGE gels and then were transferred to PVDF membrane. Blocking was performed by incubating samples in 20 mL PBST with 5% milk at 4 °C. Rabbit anti-tap (Thermo, CAB1001) was used as primary antibodies at a 1:1000 dilution and incubated for 2 hours at RT. Anti-rabbit HRP (Jackson, USA) was then used as secondary antibody at 1:5000 dilution and incubate for 1 hr at RT. Chemiluminescence signals were detected using an ImageQuant LAS 4000 (GE Healthcare Bio-Sciences, USA). For cell cycle timing Western blots anti-MYC and anti-Actin antibodies were employed (ABCAM, UK).
substance,measurement,value
DQ36-mut1: DQ36-mut1 where all 5 RILQY residues were changed to alanine AAAAA (Biotin-DMNKAAAAAMPEPPKCSSLRQKSYIMKKRTHYSYQQ),binding to APC/C (in words),maintained the ability to pull-down APC/C
